Data taken from ChEMBL document CHEMBL5500418, “Structure-Activity Study on Substituted, Core-Extended, and Dyad Naphthalene Diimide G-Quadruplex Ligands Leading to Potent Antitrypanosomal Agents” (J Med Chem, 2024).

Key:
[1] = Cytotoxicity against human MRC5 cells incubated for 72 hrs by alamar blue staining based assay; format: toxicity, cell-based
Trypanosoma brucei [2] = assay: Antitrypanosomal activity against bloodstream-stage Trypanosoma brucei measured after 72 hrs by alamar blue assay; format: functional, organism-based
Leishmania major = assay: Antileishmanial activity against Leishmania major promastigotes MHOM/IL/80/Friedlin measured after 72 hrs by MTT assay; format: functional, organism-based
[3] = Selectivity index, ratio of IC50 for human MRC5 to IC50 for Trypanosoma brucei measured after 72 hrs by alamar blue assay; format: toxicity; conditions: MRC5 cells, read-out: Ratio IC50
[4] = Selectivity index, ratio of IC50 for human MRC5 to IC50 for Leishmania major measured after 72 hrs by MTT assay; format: toxicity; conditions: MRC5 cells, read-out: Ratio IC50
Quadruplex DNA [5] = assay: Stabilization of 22AG G4 DNA (unknown origin) assessed as change in melting temperature at 1 uM by FRET assay; format: nucleic-acid assay
Quadruplex DNA [6] = assay: Stabilization of Trypanosoma brucei ERB1 G4 DNA assessed as change in melting temperature at 1 uM by FRET assay; format: nucleic-acid assay
Trypanosoma brucei [7] = assay: Trypanocidal activity against bloodstream-stage Trypanosoma brucei measured after 72 hrs by CellTiter-Glo luminescent assay; format: functional, organism-based
[8] = Selectivity index, ratio of IC50 for human MRC5 to IC50 for Trypanosoma brucei measured after 72 hrs by CellTiter-Glo luminescent assay; format: toxicity; conditions: MRC5 cells, read-out: Ratio IC50
Quadruplex DNA [9] = assay: Stabilization of 22AG G4 DNA (unknown origin) assessed as change in melting temperature at 265 nm wavelength at 5 uM by CD spectroscopy; format: nucleic-acid assay
Quadruplex DNA [10] = assay: Stabilization of 22AG G4 DNA (unknown origin) assessed as change in melting temperature at 292 nm wavelength at 5 uM by CD spectroscopy; format: nucleic-acid assay
Quadruplex DNA [11] = assay: Stabilization of Trypanosoma brucei ERB1 G4 DNA assessed as change in melting temperature at 265 nm wavelength at 5 uM by CD spectroscopy; format: nucleic-acid assay
Quadruplex DNA [12] = assay: Stabilization of Trypanosoma brucei ERB1 G4 DNA assessed as change in melting temperature at 292 nm wavelength at 5 uM by CD spectroscopy; format: nucleic-acid assay
[13] = Drug uptake in human MRC5 cells at 4 to 37 degreeC at 5 uM after 30 to 120 mins by flow cytometry analysis; format: ADME, cell-based; conditions: mrc5, 5 µM, time 30-120 min
[14] = Drug uptake in Trypanosoma brucei at 4 to 37 degreeC at 5 uM after 30 to 120 mins by flow cytometry analysis; format: ADME; conditions: time 30-120 min
[15] = Drug localization in human MRC5 cells nucleus at 37 degreeC at 5 uM after 30 mins by DAPI staining based fluorescence microscopy analysis; format: ADME, subcellular; conditions: mrc5, 0.5 h
[16] = Drug localization in Trypanosoma brucei nucleus at 37 degreeC at 5 uM after 30 mins by DAPI staining based fluorescence microscopy analysis; format: ADME, subcellular; conditions: 0.5 h
[17] = Drug localization in human MRC5 cells cytoplasm at 37 degreeC at 5 uM after 30 mins by DAPI staining based fluorescence microscopy analysis; format: ADME, subcellular; conditions: mrc5, 0.5 h
[18] = Drug localization in Trypanosoma brucei kinetoplast at 37 degreeC at 5 uM after 30 mins by DAPI staining based fluorescence microscopy analysis; format: ADME, subcellular; conditions: 0.5 h
[19] = Drug localization in Trypanosoma brucei at 5 uM after 120 mins by DAPI staining based fluorescence microscopy analysis; format: ADME; conditions: 2 h
Trypanosoma brucei [20] = assay: Antitrypanosomal activity against Trypanosoma brucei; format: functional, organism-based

SMILES | IC50 at 72 h [1] | IC50 (Trypanosoma brucei [2]) | IC50 (Leishmania major) | selectivity ratio at 72 h [3] | selectivity ratio at 72 h [4] | ΔTm (Quadruplex DNA [5]) | ΔTm (Quadruplex DNA [6]) | other results
O=C1c2ccc3c4c(c(NCCOCCO)cc(c24)C(=O)N1CCOCCO)C(=O)N(CCOCCO)C3=O | > 100000 nM | 9500 nM | 14300 nM | > 10.5 | > 6.98 | -1.4 °C | 2.9 °C | 
O=C1c2cc(NCCOCCO)c3c4c(cc(NCCOCCO)c(c24)C(=O)N1CCOCCO)C(=O)N(CCOCCO)C3=O | > 100000 nM | 42700 nM | > 100000 nM | > 2.3 |  | 0.3 °C | 3.5 °C | 
CN(C)CCCN1C(=O)c2ccc3c4c(c(NCc5cn(CCO[C@@H]6O[C@H](CO)[C@@H](O)[C@H](O)[C@H]6O)nn5)cc(c24)C1=O)C(=O)N(CCCN(C)C)C3=O |  |  |  | 41.8 | 1.3 | 2.7 °C | 8.6 °C | 
CCCNc1cc2c3c(ccc4c3c1C(=O)N(CCCN(C)C)C4=O)C(=O)N(CCCN(C)C)C2=O |  |  |  | 40 | 10.6 | > 30 °C | 12 °C | 
CN(C)CCCn1c(=O)c2ccc3c(=O)n(CCCN(C)C)c(=O)c4c5[nH]c6ccccc6[nH]c5c(c1=O)c2c34 | 23 nM | 0.26 nM | 2 nM | 88 | 11.5 | 8.5 °C | > 30 °C | IC50 (Trypanosoma brucei [7]): 0.07 nM; selectivity ratio at 72 h [8]: 328; ΔTm (Quadruplex DNA [9]): 6.7 °C; ΔTm (Quadruplex DNA [10]): 3 °C; ΔTm (Quadruplex DNA [11]): 25.9 °C; ΔTm (Quadruplex DNA [12]): 23 °C; Drug uptake [13]: Active; Drug uptake [14]: 20%
CN(C)CCCNc1cc2c3c(c(N(C)C)cc4c3c1C(=O)N(CCCN(C)C)C4=O)C(=O)N(CCCN(C)C)C2=O | 7700 nM | 21 nM | 2960 nM | 367 | 2.6 | 1.9 °C | 3.6 °C | ΔTm (Quadruplex DNA [9]): 8.9 °C; ΔTm (Quadruplex DNA [10]): -1.4 °C; ΔTm (Quadruplex DNA [11]): 2.4 °C; ΔTm (Quadruplex DNA [12]): 2.7 °C; Drug uptake [14]: 0%
CCCNC(=O)c1ccc2[nH]c3c([nH]c2c1)c1c(=O)n(CCCN(C)C)c(=O)c2ccc4c(=O)n(CCCN(C)C)c(=O)c3c4c21 | 38 nM | 0.09 nM | 310 nM | 422 | 0.12 | > 30 °C | > 30 °C | IC50 (Trypanosoma brucei [7]): 0.011 nM; selectivity ratio at 72 h [8]: 3450; ΔTm (Quadruplex DNA [9]): > 30 °C; ΔTm (Quadruplex DNA [10]): 14.8 °C; ΔTm (Quadruplex DNA [11]): 22.7 °C; ΔTm (Quadruplex DNA [12]): 26 °C; Drug uptake [13]: Active; Drug uptake [14]: 20%; Drug uptake [15]: Active; Drug uptake [16]: Active; Drug uptake [17]: Not Active; Drug uptake [18]: Not Active; Drug uptake [19]: Active
CN(C)CCCNc1cc2c3c(ccc4c3c1C(=O)N(CCCN(C)C)C4=O)C(=O)N(CCCN(C)C)C2=O | > 100000 nM | 21500 nM | > 100000 nM | > 4.6 |  | 9.6 °C | 19 °C | 
CN(C)CCCNc1cc2c3c(c(NCCCN(C)C)cc4c3c1C(=O)N(CCCN(C)C)C4=O)C(=O)N(CCCN(C)C)C2=O | 2100 nM | 54 nM | 11800 nM | 38.9 | 0.18 | > 30 °C | > 30 °C | 
CN(C)CCCN1C(=O)c2ccc3c4c(c(NCCCCCCCNc5cc6c7c(ccc8c7c5C(=O)N(CCCN(C)C)C8=O)C(=O)N(CCCN(C)C)C6=O)cc(c24)C1=O)C(=O)N(CCCN(C)C)C3=O | 62 nM | 15 nM | 2590 nM | 4 | 0.002 | > 30 °C | 15 °C | 
O=C1c2ccc3c4c(ccc(c24)C(=O)N1CCOCCO)C(=O)N(CCOCCO)C3=O | 14500 nM | 2500 nM | 3760 nM | 5.8 | 3.85 | -2.2 °C | 1.3 °C | 
CN(C)CCCN1C(=O)c2ccc3c4c(c(NCc5cn([C@@H]6O[C@H](CO)[C@@H](O)[C@H](O)[C@H]6O)nn5)cc(c24)C1=O)C(=O)N(CCCN(C)C)C3=O |  |  |  | 47.9 | 4.7 | 10 °C | 11 °C | 
CN(C)CCCNc1cc2c3c(c(NCCCCCCCNc4cc5c6c(ccc7c6c4C(=O)N(CCCN(C)C)C7=O)C(=O)N(CCCN(C)C)C5=O)cc4c3c1C(=O)N(CCCN(C)C)C4=O)C(=O)N(CCCN(C)C)C2=O | 66300 nM | 8500 nM | > 100000 nM | 7.8 | < 0.66 | 18.3 °C | > 30 °C | 
O=c1c2ccc3c(=O)n(CCOCCO)c(=O)c4c5[nH]c6ccccc6[nH]c5c(c(=O)n1CCOCCO)c2c34 | 1800 nM | 290 nM | > 100000 nM | 6.2 | < 0.018 | -2.2 °C | 2.1 °C | IC50 (Trypanosoma brucei [7]): 130 nM; selectivity ratio at 72 h [8]: 13.8
CN(C)CCCN1C(=O)c2ccc3c4c(c(N5CCCCC5)cc(c24)C1=O)C(=O)N(CCCN(C)C)C3=O | 2600 nM | 32 nM | 170 nM | 81.3 | 15.3 | 2.3 °C | 7.4 °C | 
COCCOCCNc1cc2c3c(ccc4c3c1C(=O)N(CCCN(C)C)C4=O)C(=O)N(CCCN(C)C)C2=O | 5000 nM | 61 nM | 4420 nM | 80.6 | 1.1 | 4.4 °C | 9.7 °C | 
N=C(N)c1ccc(OCCCCCOc2ccc(C(=N)N)cc2)cc1 [PENTAMIDINE] |  |  |  |  |  |  |  | IC50 (Trypanosoma brucei [20]): 0.2 nM
CN(C)CCCN1C(=O)c2ccc3c4c(c(NCCCO)cc(c24)C1=O)C(=O)N(CCCN(C)C)C3=O | 5000 nM | 57 nM | 2490 nM | 87.7 | 2 | 5 °C | 12 °C | 
CN(C)CCCN1C(=O)c2cc(NCCOCCOCCNc3cc4c5c(c(Br)cc6c5c3C(=O)N(CCCCCC(=O)O)C6=O)C(=O)N(CCCCCC(=O)O)C4=O)c3c4c(cc(Br)c(c24)C1=O)C(=O)N(CCCN(C)C)C3=O | 14000 nM | 550 nM | > 100000 nM | 25 | < 0.14 | 3.8 °C | 7.1 °C | ΔTm (Quadruplex DNA [9]): 4.9 °C; ΔTm (Quadruplex DNA [10]): -2.5 °C; ΔTm (Quadruplex DNA [11]): 5.2 °C; ΔTm (Quadruplex DNA [12]): 3.2 °C
